In assay [1] the test system is PC-3. The assay is described as follows: Cytotoxicity against human PC3 cells at 5 uM after 48 hrs by MTT assay relative to control. Format: functional. In general terms: Formazan colour is commonly taken as a measure of viable cells.
For assay [2], the system named is PC-3. The assay is described as follows: Cytotoxicity against human PC3 cells at 25 uM after 48 hrs by MTT assay relative to control. Type of assay: functional.
Assay [3] deals with PC-3. The assay is described as follows: Growth inhibition of human PC3 cells after 48 hrs by MTT assay. Format: functional, cell-based. The note with it: PC-3, 48 h.

Experimental findings from ChEMBL document CHEMBL4138289, “Structurally Diverse Cytotoxic Dimeric Chalcones from Oxytropis chiliophylla” (J Nat Prod, 2018) are described below.

Take `O=C(c1ccc(O)cc1O)[C@H]1[C@H](c2ccccc2)[C@H](C(=O)c2ccc(O)cc2O)[C@H]1c1ccccc1`: the Activity with PC-3 [1] came out at 29.6%; in the assay with PC-3 [2], 88%.
One may read the IC50 as the concentration at which inhibition is half-maximal. Read a high IC50 as a need for much substance. For `O=C(c1ccc(O)cc1O)[C@@H]1[C@@H](C(=O)c2ccc(O)cc2O)[C@H](c2ccccc2)[C@H]1c1ccccc1`, the figures for the Activity in the assay with PC-3 [1] and in the assay with PC-3 [2] were 41.2% and 96.3%, respectively. Also, the IC50 in the assay on PC-3 [3] amounted to 3.8 µM.
As to `O=C(/C=C/c1ccccc1)c1ccc(O)cc1O` [2',4'-DIHYDROXYCHALCONE], the Activity is given as 16.6% in the assay with PC-3 [1] and 66.2% in the assay with PC-3 [2].
In the same order, the values of `O=C(c1ccc(O)cc1O)[C@H]1[C@H](C(=O)c2ccc(O)cc2O)[C@H](c2ccccc2)[C@@H]1c1ccccc1` are 30.7% and 87.6%.
In the same order, the values of `O=C(c1ccc(O)cc1O)[C@@H]1Cc2ccccc2[C@H](C(=O)c2ccc(O)cc2O)[C@@H]1c1ccccc1` are 22.3% and 73.4%.
In the same order, the values of `O=C(c1ccc(O)cc1O)[C@@H]1[C@H](C(=O)c2ccc(O)cc2O)[C@@H](c2ccccc2)[C@H]1c1ccccc1` are 27.1% and 78.8%.
As for `O=C(c1ccc(O)cc1O)[C@H]1[C@H](c2ccccc2)[C@H](C(=O)c2ccc(O)cc2O)[C@@H]1c1ccccc1`, the Activity is 12.3% in the assay on PC-3 [1] and 57.9% in the assay with PC-3 [2].
On to `O=C(c1ccc(O)cc1O)[C@@H]1[C@@H](C(=O)c2ccc(O)cc2O)[C@H](c2ccccc2)[C@@H]1c1ccccc1`, for which the Activity with PC-3 [1] amounted to 29%; in the assay with PC-3 [2] it was 75.5%.
Consider `O=C(c1ccc(O)cc1O)[C@H]1[C@H](C(=O)c2ccc(O)cc2O)[C@@H](c2ccccc2)[C@@H]1c1ccccc1`, for which the results for the Activity with PC-3 [1] and in the assay with PC-3 [2] were 49.7% and 97.6%, respectively. In the assay with PC-3 [3], the IC50 was found to be 3.5 µM.
As for `O=C(c1ccc(O)cc1O)[C@H]1[C@H](c2ccccc2)[C@@H](C(=O)c2ccc(O)cc2O)[C@@H]1c1ccccc1`, the figures for the Activity with PC-3 [1] and with PC-3 [2] were 12.8% and 76.7%, respectively.
The corresponding values for `O=C(c1ccc(O)cc1O)[C@H]1Cc2ccccc2[C@@H](C(=O)c2ccc(O)cc2O)[C@H]1c1ccccc1` are 46.1% and 86.3%.
